Reference: patent US12617797B2, “Substituted pyrazolo [1,5-a]pyrimidines having multimodal activity against pain” (ESTEVE PHARMACEUTICALS, S.A., priority 2020, dated 2026)
One block for each compound: values may come before it.

Columns and labels:
[1] = target: T1, Human σ1 receptor (Homo sapiens, UniProt Q99720); experiment: Human σ1 receptor radioligand assay ([3H](+)-pentazocine binding, transfected HEK-293 membranes); details: binding to σ1 receptor expressed as Ki; + also covers inhibition between 1% and 50%; read-out: σ-1 binding
T1 construct: expressed in transfected cells; host or cells: HEK-293
T1 sequence (Q99720 whole entry): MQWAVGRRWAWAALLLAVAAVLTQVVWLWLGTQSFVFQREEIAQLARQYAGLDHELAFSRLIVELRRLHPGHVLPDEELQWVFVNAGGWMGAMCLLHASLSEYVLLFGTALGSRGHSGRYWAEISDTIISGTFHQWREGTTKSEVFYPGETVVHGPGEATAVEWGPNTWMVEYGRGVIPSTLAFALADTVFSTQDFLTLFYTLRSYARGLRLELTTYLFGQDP
How it was run: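 Membranes (7 μg) were incubated with 5 nM [3H](+)-pentazocine in 50 mM Tris-HCl pH 8 for 120 min at 37° C. Non-specific binding was defined with 10 μM haloperidol. Values are % inhibition at 1 or 10 μM or Ki from five concentrations, read by filtration and scintillation counting.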

[2] = target: Human α2δ-1 subunit of Cav2.2 calcium channel (Homo sapiens, UniProt P54289); experiment: Human α2δ-1 subunit of Cav2.2 calcium channel assay ([3H]-gabapentin binding); details: binding to the α2δ-1 subunit of voltage-gated calcium channels expressed as Ki; + also covers inhibition between 1% and 50%
Chain of Human α2δ-1 subunit of Cav2.2 calcium channel (P54289 25-1103): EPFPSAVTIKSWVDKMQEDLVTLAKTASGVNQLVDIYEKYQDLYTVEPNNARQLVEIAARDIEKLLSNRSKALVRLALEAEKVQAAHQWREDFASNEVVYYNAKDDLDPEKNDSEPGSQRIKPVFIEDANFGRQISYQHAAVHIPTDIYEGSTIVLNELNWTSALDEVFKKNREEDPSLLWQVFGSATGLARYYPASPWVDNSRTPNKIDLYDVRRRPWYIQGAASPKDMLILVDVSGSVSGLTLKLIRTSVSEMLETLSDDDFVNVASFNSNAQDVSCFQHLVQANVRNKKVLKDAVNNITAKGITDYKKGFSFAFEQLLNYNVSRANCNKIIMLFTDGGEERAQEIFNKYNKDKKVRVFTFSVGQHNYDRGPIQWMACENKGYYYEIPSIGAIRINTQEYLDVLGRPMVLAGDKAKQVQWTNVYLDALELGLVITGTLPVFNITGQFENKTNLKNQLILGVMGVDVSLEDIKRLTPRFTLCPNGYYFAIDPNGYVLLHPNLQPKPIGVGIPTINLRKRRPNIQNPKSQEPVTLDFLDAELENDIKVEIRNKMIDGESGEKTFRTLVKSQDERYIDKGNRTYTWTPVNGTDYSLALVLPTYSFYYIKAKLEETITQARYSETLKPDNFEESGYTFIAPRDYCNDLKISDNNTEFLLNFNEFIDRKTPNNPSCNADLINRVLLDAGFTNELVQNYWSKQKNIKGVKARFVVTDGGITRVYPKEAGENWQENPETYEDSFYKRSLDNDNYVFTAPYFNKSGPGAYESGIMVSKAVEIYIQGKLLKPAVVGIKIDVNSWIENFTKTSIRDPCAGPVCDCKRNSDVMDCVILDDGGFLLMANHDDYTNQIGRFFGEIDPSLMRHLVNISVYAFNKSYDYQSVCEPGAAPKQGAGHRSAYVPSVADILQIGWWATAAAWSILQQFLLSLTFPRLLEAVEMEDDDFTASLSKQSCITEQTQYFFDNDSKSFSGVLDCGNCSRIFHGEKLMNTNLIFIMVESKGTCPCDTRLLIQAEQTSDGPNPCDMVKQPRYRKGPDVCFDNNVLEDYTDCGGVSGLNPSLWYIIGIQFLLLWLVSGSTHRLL
How it was run: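 Membranes enriched in human α2δ-1 incubated with 15 nM [3H]-gabapentin in 10 mM Hepes-KOH pH 7.4, 60 min at 27 °C; nonspecific binding defined with 10 μM pregabalin. Filtration and scintillation counting; % inhibition at 1 or 10 μM, or Ki from five concentrations.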

Structure (SMILES): Cc1nn2c([C@H]3CCCN([C@@H](CO)c4ccccc4)C3)ccnc2c1-c1ccncc1 [Example 108, (R)-2-((S)-3-(2-methyl-3-(pyridin-4-yl)pyrazolo[1,5-a]pyrimidin-7-yl)piperidin-1-yl)-2-phenylethanol]
- Ki [1]: > 1000 nM
- Ki [2]: > 5000 nM

Structure (SMILES): Cc1nn2c([C@@H]3CCCN([C@@H](CO)c4ccccc4)C3)ccnc2c1-c1ccncc1 [Example 109, (R)-2-((R)-3-(2-methyl-3-(pyridin-4-yl)pyrazolo[1,5-a]pyrimidin-7-yl)piperidin-1-yl)-2-phenylethanol]
- Ki [1]: > 1000 nM
- Ki [2]: 500 to 5000 nM

Structure (SMILES): Clc1cccc(CN2CCCC(c3ccnc4cc(Br)nn34)C2)c1 (centres unmarked) [Example 111, 2-Bromo-7-(1-(3-chlorobenzyl)piperidin-3-yl)pyrazolo[1,5-a]pyrimidine]
- Ki [1]: > 1000 nM
- Ki [2]: > 5000 nM

Structure (SMILES): Clc1ccc(CN2CCCC(c3ccnc4cc(Br)nn34)C2)cc1Cl (centres unmarked) [Example 112, 2-Bromo-7-(1-(3,4-dichlorobenzyl)piperidin-3-yl)pyrazolo[1,5-a]pyrimidine]
- Ki [1]: > 1000 nM
- Ki [2]: > 5000 nM

Structure (SMILES): Fc1ccc(CN2CCCC(c3ccnc4cc(Br)nn34)C2)cc1F (centres unmarked) [Example 113, 2-Bromo-7-(1-(3,4-difluorobenzyl)piperidin-3-yl)pyrazolo[1,5-a]pyrimidine]
- Ki [1]: > 1000 nM
- Ki [2]: 500 to 5000 nM

Structure (SMILES): COc1ncccc1-c1cc2nccc(C3CCCN(Cc4ccc(Cl)cc4)C3)n2n1 (centres unmarked) [Example 114, 7-(1-(4-Chlorobenzyl)piperidin-3-yl)-2-(2-methoxypyridin-3-yl)pyrazolo[1,5-a]pyrimidine]
- Ki [1]: > 1000 nM
- Ki [2]: > 5000 nM

Structure (SMILES): Oc1ncccc1-c1cc2nccc(C3CCCN(Cc4ccc(Cl)cc4)C3)n2n1 (centres unmarked) [Example 115, 3-(7-(1-(4-chlorobenzyl)piperidin-3-yl)pyrazolo[1,5-a]pyrimidin-2-yl)pyridin-2-ol]
- Ki [1]: > 1000 nM
- Ki [2]: > 5000 nM

Structure (SMILES): COc1ncccc1-c1cc2nccc(C3CCCN(Cc4cccc(Cl)c4)C3)n2n1 (centres unmarked) [Example 116, 7-(1-(3-Chlorobenzyl)piperidin-3-yl)-2-(2-methoxypyridin-3-yl)pyrazolo[1,5-a]pyrimidine]
- Ki [1]: > 1000 nM
- Ki [2]: > 5000 nM

Structure (SMILES): Oc1ncccc1-c1cc2nccc(C3CCCN(Cc4cccc(Cl)c4)C3)n2n1 (centres unmarked) [Example 117, 3-(7-(1-(3-Chlorobenzyl)piperidin-3-yl)pyrazolo[1,5-a]pyrimidin-2-yl)pyridin-2-ol]
- Ki [1]: > 1000 nM
- Ki [2]: > 5000 nM

Structure (SMILES): COc1ncccc1-c1cc2nccc(C3CCCN(Cc4ccc(Cl)c(Cl)c4)C3)n2n1 (centres unmarked) [Example 118, 7-(1-(3,4-Dichlorobenzyl)piperidin-3-yl)-2-(2-methoxypyridin-3-yl)pyrazolo[1,5-a]pyrimidine]
- Ki [1]: > 1000 nM
- Ki [2]: > 5000 nM

Structure (SMILES): COc1ncccc1-c1cc2nccc(C3CCCN(Cc4ccc(F)c(F)c4)C3)n2n1 (centres unmarked) [Example 119, 7-(1-(3,4-Difluorobenzyl)piperidin-3-yl)-2-(2-methoxypyridin-3-yl)pyrazolo[1,5-a]pyrimidine]
- Ki [1]: > 1000 nM
- Ki [2]: > 5000 nM

Structure (SMILES): Cc1nn2c(C3CCCN(Cc4cccc(Cl)c4)C3)ccnc2c1-c1ccncc1 (centres unmarked) [Example 122, 7-(1-(3-Chlorobenzyl)piperidin-3-yl)-2-methyl-3-(pyridin-4-yl)pyrazolo[1,5-a]pyrimidine]
- Ki [1]: > 1000 nM
- Ki [2]: 500 to 5000 nM

Structure (SMILES): Cc1nn2c(C3CCCN(Cc4ccc(Cl)c(Cl)c4)C3)ccnc2c1-c1ccncc1 (centres unmarked) [Example 123, 7-(1-(3,4-Dichlorobenzyl)piperidin-3-yl)-2-methyl-3-(pyridin-4-yl)pyrazolo[1,5-a]pyrimidine]
- Ki [1]: > 1000 nM
- Ki [2]: 500 to 5000 nM

Structure (SMILES): Cc1nn2c(C3CCCN(Cc4ccc(F)c(F)c4)C3)ccnc2c1-c1ccncc1 (centres unmarked) [Example 125, 7-(1-(3,4-Difluorobenzyl)piperidin-3-yl)-2-methyl-3-(pyridin-4-yl)pyrazolo[1,5-a]pyrimidine]
- Ki [1]: > 1000 nM
- Ki [2]: 500 to 5000 nM

Structure (SMILES): Cc1nn2c(C3CCCN(Cc4ccc(C(F)(F)F)cc4)C3)ccnc2c1-c1ccncc1 (centres unmarked) [Example 126, 2-Methyl-3-(pyridin-4-yl)-7-(1-(4-(trifluoromethyl)benzyl)piperidin-3-yl)pyrazolo[1,5-a]pyrimidine]
- Ki [1]: > 1000 nM
- Ki [2]: > 5000 nM

Structure (SMILES): Cc1nn2c(C3CCCN(Cc4ccc(Cl)cc4)C3)ccnc2c1-c1cccc(C(=O)N(C)C)c1 (centres unmarked) [Example 128, 3-(7-(1-(4-Chlorobenzyl)piperidin-3-yl)-2-methylpyrazolo[1,5-a]pyrimidin-3-yl)-N,N-dimethylbenzamide]
- Ki [1]: > 1000 nM
- Ki [2]: > 5000 nM

Structure (SMILES): Cc1nn2c(C3CCCN(Cc4ccc(Cl)cc4)C3)ccnc2c1-c1ccc(C(N)=O)cc1 (centres unmarked) [Example 129, 4-(7-(1-(4-Chlorobenzyl)piperidin-3-yl)-2-methylpyrazolo[1,5-a]pyrimidin-3-yl)benzamide]
- Ki [1]: > 1000 nM
- Ki [2]: > 5000 nM

Structure (SMILES): Cc1nn2c(C3CCCN(Cc4ccc(Cl)cc4)C3)ccnc2c1-c1cncnc1 (centres unmarked) [Example 130, 7-(1-(4-Chlorobenzyl)piperidin-3-yl)-2-methyl-3-(pyrimidin-5-yl)pyrazolo[1,5-a]pyrimidine]
- Ki [1]: > 1000 nM
- Ki [2]: 500 to 5000 nM

Structure (SMILES): Cc1nn2c(C3CCCN(Cc4ccc(Cl)cc4)C3)ccnc2c1-c1cnc(N)nc1 (centres unmarked) [Example 131, 5-(7-(1-(4-Chlorobenzyl)piperidin-3-yl)-2-methylpyrazolo[1,5-a]pyrimidin-3-yl)pyrimidin-2-amine]
- Ki [1]: > 1000 nM
- Ki [2]: > 5000 nM

Structure (SMILES): Cc1nn2c(C3CCCN(Cc4ccc(Cl)cc4)C3)ccnc2c1-c1cnn(C)c1 (centres unmarked) [Example 132, 7-(1-(4-Chlorobenzyl)piperidin-3-yl)-2-methyl-3-(1-methyl-1H-pyrazol-4-yl)pyrazolo[1,5-a]pyrimidine]
- Ki [1]: > 1000 nM
- Ki [2]: 500 to 5000 nM

Structure (SMILES): Cc1noc(C)c1-c1c(C)nn2c(C3CCCN(Cc4ccc(Cl)cc4)C3)ccnc12 (centres unmarked) [Example 133, 4-(7-(1-(4-Chlorobenzyl)piperidin-3-yl)-2-methylpyrazolo[1,5-a]pyrimidin-3-yl)-3,5-dimethylisoxazole]
- Ki [1]: > 1000 nM
- Ki [2]: > 5000 nM

More lines, now with the values ahead:

- Ki [1]: < 500 nM
- Ki [2]: 500 to 5000 nM
Structure (SMILES): Cc1nn2c(C3CCCN(Cc4ccccc4)C3)ccnc2c1CNCc1ccccc1 (centres unmarked) [Example 98, N-Benzyl-1-(7-(1-benzylpiperidin-3-yl)-2-methylpyrazolo[1,5-a]pyrimidin-3-yl)methanamine]

- Ki [1]: > 1000 nM
- Ki [2]: 500 to 5000 nM
Structure (SMILES): Cc1nn2c(C3CCCN(Cc4ccccc4)C3)ccnc2c1CN (centres unmarked) [Example 99, (7-(1-Benzylpiperidin-3-yl)-2-methylpyrazolo[1,5-a]pyrimidin-3-yl)methanamine]

- Ki [1]: > 1000 nM
- Ki [2]: 500 to 5000 nM
Structure (SMILES): Cc1nn2c(C3CCCN(Cc4ccccc4)C3)ccnc2c1CN1CCNCC1 (centres unmarked) [Example 100, 7-(1-Benzylpiperidin-3-yl)-2-methyl-3-(piperazin-1-ylmethyl)pyrazolo[1,5-a]pyrimidine]

- Ki [1]: < 500 nM
- Ki [2]: > 5000 nM
Structure (SMILES): Cc1nn2c(C3CCCN(Cc4ccccc4)C3)ccnc2c1COCc1ccccc1 (centres unmarked) [Example 101, 3-((Benzyloxy)methyl)-7-(1-benzylpiperidin-3-yl)-2-methylpyrazolo[1,5-a]pyrimidine]

- Ki [1]: > 1000 nM
- Ki [2]: > 5000 nM
Structure (SMILES): Cc1nn2c(C3CCCN(Cc4ccccc4)C3)ccnc2c1COc1ccccc1 (centres unmarked) [Example 102, 7-(1-Benzylpiperidin-3-yl)-2-methyl-3-(phenoxymethyl)pyrazolo[1,5-a]pyrimidine]

- Ki [1]: > 1000 nM
- Ki [2]: 500 to 5000 nM
Structure (SMILES): Cc1nn2c(C3CCCN(Cc4ccccc4)C3)ccnc2c1CCCN (centres unmarked) [Example 103, 3-(7-(1-Benzylpiperidin-3-yl)-2-methylpyrazolo[1,5-a]pyrimidin-3-yl)propan-1-amine]

- Ki [1]: > 1000 nM
- Ki [2]: > 5000 nM
Structure (SMILES): Cc1nn2c([C@@H]3CCCN([C@H](CO)c4ccccc4)C3)ccnc2c1-c1ccncc1 [Example 106, (S)-2-((R)-3-(2-Methyl-3-(pyridin-4-yl)pyrazolo[1,5-a]pyrimidin-7-yl)piperidin-1-yl)-2-phenylethanol]

- Ki [1]: > 1000 nM
- Ki [2]: > 5000 nM
Structure (SMILES): Cc1nn2c([C@H]3CCCN([C@H](CO)c4ccccc4)C3)ccnc2c1-c1ccncc1 [Example 107, (S)-2-((S)-3-(2-methyl-3-(pyridin-4-yl)pyrazolo[1,5-a]pyrimidin-7-yl)piperidin-1-yl)-2-phenylethanol]

- Ki [1]: 500 to 1000 nM
- Ki [2]: > 5000 nM
Structure (SMILES): Clc1ccc(CN2CCCC(c3ccnc4cc(Br)nn34)C2)cc1 (centres unmarked) [Example 110, 2-Bromo-7-(1-(4-chlorobenzyl)piperidin-3-yl)pyrazolo[1,5-a]pyrimidine]

- Ki [1]: < 500 nM
- Ki [2]: < 500 nM
Structure (SMILES): Clc1ccc(CN2CCCC(c3ccnc4c(CNCC5CCOCC5)c(Br)nn34)C2)cc1 (centres unmarked) [Example 120, 1-(2-Bromo-7-(1-(4-chlorobenzyl)piperidin-3-yl)pyrazolo[1,5-a]pyrimidin-3-yl)-N-((tetrahydro-2H-pyran-4-yl)methyl)methanamine]

- Ki [1]: 500 to 1000 nM
- Ki [2]: 500 to 5000 nM
Structure (SMILES): Cc1nn2c(C3CCCN(Cc4ccc(Cl)cc4)C3)ccnc2c1-c1ccncc1 (centres unmarked) [Example 121, 7-(1-(4-Chlorobenzyl)piperidin-3-yl)-2-methyl-3-(pyridin-4-yl)pyrazolo[1,5-a]pyrimidine]

- Ki [1]: 500 to 1000 nM
- Ki [2]: > 5000 nM
Structure (SMILES): Cc1nn2c(C3CCCN(Cc4ccc(Cl)cc4Cl)C3)ccnc2c1-c1ccncc1 (centres unmarked) [Example 124, 7-(1-(2,4-Dichlorobenzyl)piperidin-3-yl)-2-methyl-3-(pyridin-4-yl)pyrazolo[1,5-a]pyrimidine]

- Ki [1]: < 500 nM
- Ki [2]: > 5000 nM
Structure (SMILES): Cc1nn2c(C3CCCN(CCC(C)C)C3)ccnc2c1-c1ccncc1 (centres unmarked) [Example 127, 7-(1-Isopentylpiperidin-3-yl)-2-methyl-3-(pyridin-4-yl)pyrazolo[1,5-a]pyrimidine]
